The conditions of data set [1]: reported in Heusser et al Helv Chim Acta Vol 22, 1949; cited from earlier work.
In data set [2] the target is T1, human androgen receptor (hAR) (Homo sapiens, UniProt P10275).
T1 construct: expressed in transfected cells; host or cells: Chinese hamster ovary cells (CHO)
T1 sequence (P10275 1-920): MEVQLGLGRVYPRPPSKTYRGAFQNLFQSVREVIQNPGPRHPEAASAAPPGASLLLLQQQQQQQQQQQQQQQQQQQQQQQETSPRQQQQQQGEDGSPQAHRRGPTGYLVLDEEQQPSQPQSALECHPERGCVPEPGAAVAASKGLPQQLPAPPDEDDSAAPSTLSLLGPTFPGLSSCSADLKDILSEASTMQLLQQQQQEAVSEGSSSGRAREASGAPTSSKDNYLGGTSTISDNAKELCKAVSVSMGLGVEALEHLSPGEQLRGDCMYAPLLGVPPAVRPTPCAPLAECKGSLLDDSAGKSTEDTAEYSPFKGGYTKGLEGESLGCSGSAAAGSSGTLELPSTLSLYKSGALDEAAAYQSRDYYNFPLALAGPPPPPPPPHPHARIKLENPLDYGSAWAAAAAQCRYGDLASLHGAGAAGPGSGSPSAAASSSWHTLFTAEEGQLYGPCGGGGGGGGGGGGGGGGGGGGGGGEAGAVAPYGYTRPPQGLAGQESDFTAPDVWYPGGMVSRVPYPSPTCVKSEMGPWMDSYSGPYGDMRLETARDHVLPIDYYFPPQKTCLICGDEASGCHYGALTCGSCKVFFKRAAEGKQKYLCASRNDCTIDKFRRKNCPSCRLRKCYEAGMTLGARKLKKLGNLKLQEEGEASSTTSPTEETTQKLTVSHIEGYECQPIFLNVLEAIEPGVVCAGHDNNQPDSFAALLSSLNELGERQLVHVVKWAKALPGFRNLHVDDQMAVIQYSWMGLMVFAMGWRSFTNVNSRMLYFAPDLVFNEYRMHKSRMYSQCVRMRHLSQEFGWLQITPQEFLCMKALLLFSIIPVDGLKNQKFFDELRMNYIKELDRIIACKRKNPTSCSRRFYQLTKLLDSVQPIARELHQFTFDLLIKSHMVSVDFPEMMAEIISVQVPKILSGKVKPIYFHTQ
As to the kind of experiment: Transactivative androgen activity in CHO cells transfected with hAR and MMTV-luciferase reporter, compared with 5α-dihydrotestosterone. It is filed as cell-based. Also on record: concentration or dose not given beside the values. The settings on record: incubation 16 h, 37° C., compared with the activity of 5α-dihydrotestosterone. As to the method:
The transactivative androgen activity of the compounds of the invention was measured in Chinese hamster ovary cells (CHO) transfected with the human androgen receptor (hAR), in combination with a mouse mammary tumor virus (MMTV), and luciferase […] gene (incubation time 16 h, temperature 37° C.) and compared with the activity of 5α-dihydrotestosterone [Schoonen, W. G. E. J.; de Ries, R. J. H.; Joosten, J. W. H.; Mathijssen-Mommers, G. J. W.; Kloosterboer, H. J., Analyt. Biochem. 261, 222–224 (1998)].
(In general: Reporter assays use an easily measured gene product as a stand-in for the process of interest.)

The next data set relates to human hepatocytes. In words: Determination of t1/2 (metabolic stability) after incubation with human hepatocytes. It is filed as in vitro ADME. The conditions noted are these: 100 nM compound, 0.5, 1 and 2 h, class relative to 17α-methyltestosterone and testosterone; for t1/2 Bioassay: supernatant analysed by androgenic activity bioassay (example 6). As to the method:
The half-life of a compound as a result of contact with human hepatocytes holds as a reliable indication of metabolic stability. As it is well known that the absorption of this class of steroids is high, this assay provides an in vitro model for oral activity in humans.
Hepatocytes collected from healthy young (25–45 year) male organ donors were cryo preserved in liquid nitrogen and kept there until use. They were thawed at 37° C. in a waterbath, placed immediately on ice, washed twice in one volume of cold (4° C.) incubation medium [William's medium E (without phenol red) with Glutamax I®, gentamicin 50 μg/ml, insulin 1 μM, fetal calf serum 0% (v/v)], counted and the viability checked by Trypan blue exclusion. Cells were incubated as suspensions in 96-wells (non-coated) plates at a nominal density of 3×10^4 cells/well in 300 μl medium at 37° C. with an air/CO2 mixture (95/5).
The hepatocytes were incubated with 100 nM final concentration of the compound to be tested. The incubations were stopped after 0.5, 1 and 2 h by centrifugation at 200 g. The supernatant was collected for liquid chromatography coupled to immediate mass spectroscopic analysis (LC-MS/MS analysis) and for bioassay. For the latter 10 μl was used for determination of the androgenic activity. The androgenicity was determined as described at example 6. The final compound concentration for determination of androgenic activity was 1 nmol/l.
The metabolic stability (t1/2) of the compounds of the invention were classified according to the following scheme: • (+++) metabolic stability>17α-methyltestosterone (MT) • (++) 17α-methyltestosterone>metabolic stability>80% of 17α-methyltestosterone • (+) 80% of 17α-methyltestosterone>metabolic stability>testosterone • (−) metabolic stability<testosterone Results are collected in Table 1.

Consider `C[C@]12CC[C@H]3[C@@H](CCC4=CC(=O)CC[C@@]43C)[C@H]1CC[C@H]2O` [17α-hydroxy-14β-testosterone], for which the androgenic activity result in data set [1] is on record as “no androgenic activity”. Regarding `C[C@@H]1CC2=CC(=O)CC[C@@H]2[C@H]2CC[C@]3(C)[C@H](O)CC[C@@H]3[C@@H]21` [Ref. comp. 2, (7α,14β,17α)-17-Hydroxy-7-methylestr-4-en-3-one, reference compound], the “Androgen activity (%)” value in data set [2] was determined as 60.5%. The same measure, in the same setting: the result for `CC[C@@]1(C)C[C@@H]2[C@H]3[C@H](CC[C@]2(C)[C@@H]1O)[C@H]1CCC(=O)C=C1C[C@H]3C` [Example 4b, (7α,14β,16β,17α)-16-Ethyl-17-hydroxy-7,16-dimethylestr-4-en-3-one] reads 24.0%; that for `CC[C@H]1C[C@@H]2[C@H]3[C@H](CC[C@]2(C)[C@@H]1O)[C@H]1CCC(=O)C=C1C[C@H]3C` [Example 4a, (7α,14β,16β,17α)-16-Ethyl-17-hydroxy-7-methylestr-4-en-3-one], 20.0%.

In the case of `C[C@@H]1CC2=CC(=O)CC[C@@H]2[C@H]2CC[C@]3(C)[C@H](O)[C@@H](C)C[C@@H]3[C@@H]21` [Example 1, (7α,14β,16β,17α)-17-Hydroxy-7,16-dimethylestr-4-en-3-one], in data set [2], the “Androgen activity (%)” value was 99.0%. Moreover, the “t1/2 LC-MS/MS” value in the data set with human hepatocytes (supernatant analysed by LC-MS/MS) is listed as “(+ +)”. Moreover, in the data set on human hepatocytes, the “t1/2 Bioassay” value is “(+ +)”. Regarding `C[C@@H]1CC2=CC(=O)CC[C@@H]2[C@H]2CC[C@]3(C)[C@H](O)[C@H](C)C[C@@H]3[C@@H]21` [Example 2, (7α,14β,16α,17α)-17-Hydroxy-7,16-dimethylestr-4-en-3-one], in data set [2], the “Androgen activity (%)” value is listed as 38.7%. Besides, in the data set with human hepatocytes, the “t1/2 Bioassay” value was “(+ +)”. Turning to `C[C@@H]1CC2=CC(=O)CC[C@@H]2[C@H]2CC[C@@]3(C)[C@H](CC(C)(C)[C@H]3O)[C@@H]21` [Example 3, (7α,14β,17α)-17-hydroxy-7,16,16-trimethylestr-4-en-3-one], the “Androgen activity (%)” value in data set [2] is on record as 78.5%.

These data come from US7169769B2, “17α-hydroxy-14β-steroids with hormonal effect” (Akzo Nobel N.V., priority 2001, dated 2007).
